Values quoted from earlier work as cited in paper PMC3076957 (Chemico-biological interactions, 2008).
Each block holds one compound with its values, some of them ahead of it.

Columns and labels:
[1] = biological target: AKR1C2 (Homo sapiens, UniProt P52895); details: read-out: IC50 values (μM) / AKR1C2
[2] = biological target: T1, AKR1C3 (Homo sapiens, UniProt P42330); experiment: inhibition of androstenedione reduction, Lineweaver-Burk; assay type: biochemical
T1 sequence (P42330 1-323): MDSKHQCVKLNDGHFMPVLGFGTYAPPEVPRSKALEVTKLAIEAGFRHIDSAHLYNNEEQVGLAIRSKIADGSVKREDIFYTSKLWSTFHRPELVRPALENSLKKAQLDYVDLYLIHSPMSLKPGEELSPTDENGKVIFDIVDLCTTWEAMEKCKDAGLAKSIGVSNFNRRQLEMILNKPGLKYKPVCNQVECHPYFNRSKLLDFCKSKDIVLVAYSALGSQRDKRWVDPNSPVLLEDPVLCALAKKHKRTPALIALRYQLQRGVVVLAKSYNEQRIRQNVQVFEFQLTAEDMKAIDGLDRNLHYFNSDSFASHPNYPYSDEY

[3] = biological target: T1, AKR1C3; experiment: enzyme inhibition assay; details: read-out: IC50 values (μM) / AKR1C3
[4] = biological target: T1, AKR1C3; experiment: inhibition of […],10-phenanthrenequinone reduction; assay type: biochemical; details: read-out: IC50 values (μM) / AKR1C3

Chain of AKR1C2 (P52895 whole entry): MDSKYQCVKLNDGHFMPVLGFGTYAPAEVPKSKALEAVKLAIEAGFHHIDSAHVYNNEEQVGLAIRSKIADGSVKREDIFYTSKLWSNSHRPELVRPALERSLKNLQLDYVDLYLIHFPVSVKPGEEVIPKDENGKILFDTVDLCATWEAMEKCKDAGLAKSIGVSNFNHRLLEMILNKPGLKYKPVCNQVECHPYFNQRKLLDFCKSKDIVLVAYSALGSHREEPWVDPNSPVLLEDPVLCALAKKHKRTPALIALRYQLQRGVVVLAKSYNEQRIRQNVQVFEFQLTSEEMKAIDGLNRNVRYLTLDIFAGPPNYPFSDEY

Structure (SMILES): O=C(O)c1ccc(Nc2ccc([N+](=O)[O-])cc2[N+](=O)[O-])cc1 [4-Carboxy-2′,4′-dinitrodiphenylamine]
- Ki [3]: 0.38 µM

Structure (SMILES): O=C(O)c1ccc(C(=O)c2ccccc2)cc1 [4-Benzoyl-benzoic acid]
- Ki [3]: 1.9 µM

Structure (SMILES): Cc1ccc(Cl)c(Nc2ccccc2C(=O)O)c1Cl [Meclofenamic Acid]
- IC50 [4]: 0.7 µM

Second part, the compound after the results:

- IC50 [1]: 1.2 µM
Structure (SMILES): COc1ccc2cc([C@H](C)C(=O)O)ccc2c1 [Naproxen]

- Ki [2]: 6 µM
Structure (SMILES): COc1ccc2c(c1)c(CCNC(C)=O)cn2C(=O)c1ccc(Cl)cc1 [CBM, N-(4-chlorobenzoyl)-melatonin]
